According to the supplement of paper PMC10933113:
Counter-ions that a name gives are not always drawn. ± gives the uncertainty stated by the source.

Assays:
THP-1 [1] = assay: AC50 of IL-8 secretion induction; higher = less potent; details: exposure time: 18 h
[2] = tested on: KeratinoSens (HaCaT ARE-luciferase) cells; assay: AC50 of Nrf2/ARE luciferase induction; higher = less potent; details: exposure time: 24 h
[3] = tested on: KeratinoSens (HaCaT ARE-luciferase) cells; assay: cytotoxicity AC50 (CellTiter-Fluor viability); higher = less cytotoxic; details: exposure time: 24 h
THP-1 [4] = assay: efficacy of IL-8 induction relative to DMSO (% activity); higher = stronger induction; details: exposure time: 18 h
[5] = tested on: lysine peptide Ac-RFAAKAA-COOH; assay: efficacy of lysine peptide change (negative = depletion) (% activity); higher = less depletion; details: incubation time: 24 h
[6] = tested on: cysteine peptide Ac-RFAACAA-COOH; assay: efficacy of cysteine peptide change (negative = depletion) (% activity); higher = less depletion; details: incubation time: 24 h
[7] = tested on: KeratinoSens (HaCaT ARE-luciferase) cells; assay: efficacy of ARE luciferase induction relative to DMSO (% activity over DMSO); higher = stronger induction; details: exposure time: 24 h
[8] = tested on: cysteine peptide Ac-RFAACAA-COOH; assay: AC50 of cysteine peptide concentration-response (direction given by sign of efficacy); higher = less potent; details: incubation time: 24 h

| SMILES | efficacy of lysine peptide change [5] | efficacy of cysteine peptide change [6] | AC50 [8] | AC50 of IL-8 secretion induction (THP-1 [1]) | AC50 of Nrf2/ARE luciferase induction [2] | cytotoxicity AC50 [3] | efficacy of IL-8 induction (THP-1 [4]) | efficacy of ARE luciferase induction [7] |
| --- | --- | --- | --- | --- | --- | --- | --- | --- |
| c1coc(-c2nc3ccccc3[nH]2)c1 [Fuberidazole] | -20.8 ± 15 | -100 ± 9.1 | 12.3 ± 4.7 µM | 48.3 µM | 32 µM | 38.7 ± 6.6 µM | 78.3 ± 0.93 | 96.2 ± 26 |
| CN(C)c1ccc(N(C)C)cc1 [*N,N,N',N'-Tetramethyl-p-phenylenediamine] | -28.7 ± 13 | -93.1 ± 3.4 | 3.26 ± 0.91 µM | 76.5 µM | 20.9 µM | 57 ± 12 µM | 130 ± 7.7 | 98.6 ± 34 |
| c1cc(N(CC2CO2)CC2CO2)ccc1Cc1ccc(N(CC2CO2)CC2CO2)cc1 (stereo unspecified) [4,4'-Methylenebis(N,N-diglycidylaniline)] |  |  |  | 37.1 µM | 15.8 µM | 35.5 µM | 103 ± 16 | 57 ± 38 |
| Nc1ncn([C@@H]2O[C@H](CO)[C@@H](O)[C@H]2O)c(=O)n1 [5-Azacytidine] | 6.9 ± 7.1 | 4.3 ± 7.4 |  | 41.6 µM | 18.9 µM | 17.8 ± 6.3 µM | 55 ± 5.8 | 275 ± 140 |
| c1cc(N(CC2CO2)CC2CO2)ccc1OCC1CO1 (stereo unspecified) [4-(Diglycidylamino)phenyl glycidyl ether] | 41.8 ± 1.5 | -36.5 ± 12 | 20.3 ± 16 µM | 76.9 µM | 32.9 µM | 63.9 ± 12 µM | 62.3 ± 18 | 103 ± 58 |
| C[C@@H]1O[C@@H](O[C@H]2C[C@@H](O)[C@]3(CO)[C@H]4[C@H](O)C[C@]5(C)[C@@H](C6=CC(=O)OC6)CC[C@]5(O)[C@@H]4CC[C@]3(O)C2)[C@H](O)[C@H](O)[C@H]1O [Ouabain] | 6.65 ± 12 | 3.17 ± 11 |  | 2.99 µM | 0.96 µM | 1.58 µM | 35.4 ± 9.9 | 220 ± 65 |
| O=c1n(CC2CO2)c(=O)n(CC2CO2)c(=O)n1CC1CO1 (stereo unspecified) [Triglycidyl isocyanurate] | 35 ± 20 | -3.96 ± 6.9 |  | 36.9 µM | 14.1 µM | 28.3 ± 3.2 µM | 157 ± 24 | 90.3 ± 20 |
| CC(C)CC(C)Nc1ccc(Nc2ccccc2)cc1 (stereo unspecified) [N-(1,3-Dimethylbutyl)-N'-phenyl-p-phenylenediamine] | 2.97 ± 5.1 | -77.3 ± 10 | 0.88 ± 0.99 µM | 32.9 µM | 26.4 µM | 38.5 ± 5.3 µM | 29.6 ± 1.7 | 148 ± 100 |
| COc1cc(/C=C2\CCC/C(=C\c3ccc(O)c(OC)c3)C2=O)ccc1O [Cyclovalone] | 15.9 ± 15 | -50.1 ± 12 | 0.87 ± 0.35 µM | 40 µM | 15.8 µM | 22.5 ± 2.6 µM | 44.5 ± 6.9 | 242 ± 83 |
| CCS(=O)(=O)CCSP(=O)(OC)OC [Demeton-S-methylsulphon] | -8 ± 20 | -43.5 ± 12 |  | 30.7 µM | 19 µM | 22.5 ± 2.6 µM | 108 ± 5.1 | 28.1 ± 59 |
| CC(C)CP(=S)(S)CC(C)C [Sodium bis(2-methylpropyl)phosphinodithioate] | 108 ± 18 | -92.6 ± 1.4 | 76.5 ± 25 µM | 38.4 µM |  | 21.1 ± 9.9 µM | 82.4 ± 10 | 168 ± 27 |
| S=C=NCc1ccccc1 [BENZYL ISOTHIOCYANATE] | 19.8 ± 9.3 | -57.9 ± 6.4 | 34.2 ± 2.2 µM | 11.4 µM | 24.8 µM |  | 40.8 ± 25 | 278 ± 170 |

Second part, led by results:

| efficacy of lysine peptide change [5] | efficacy of cysteine peptide change [6] | AC50 [8] | SMILES | AC50 of IL-8 secretion induction (THP-1 [1]) | AC50 of Nrf2/ARE luciferase induction [2] | cytotoxicity AC50 [3] | efficacy of IL-8 induction (THP-1 [4]) | efficacy of ARE luciferase induction [7] |
| --- | --- | --- | --- | --- | --- | --- | --- | --- |
| -30.8 ± 9.1 | -112 ± 5.2 | 34.8 ± 13 µM | CC(C)(C)c1cc(O)ccc1O [tert-Butylhydroquinone] | 39.8 µM | 33 µM |  | 114 ± 90 | 293 ± 55 |
| 115 ± 4.9 | 88.8 ± 300 | 11.9 ± 20 µM | Nc1ccc2cc3ccc(N)cc3nc2c1 [Proflavin hemisulfate#] | 35.5 µM | 7.94 µM |  | 68 ± 3.1 | 390 ± 270 |
| 40.3 ± 17 | -86.4 ± 10 | 32.9 ± 2.2 µM | Sc1nc2ccccc2s1 [2-Mercaptobenzothiazole] | 28.3 µM | 20.7 µM |  | 21.3 ± 41 | 87.1 ± 23 |
| 0.82 ± 8.5 | 8.44 ± 17 |  | CCC1OCC(COc2ccc(Oc3ccccc3)cc2)O1 (stereo unspecified) [Diofenolan] | 34.2 µM | 13.7 µM | 24.4 ± 4.2 µM | 113 ± 5.8 | 138 ± 84 |
| 0 | -88.7 ± 16 |  | CC(C)=CCC1C(=O)N(c2ccccc2)N(c2ccccc2)C1=O [Feprazone] | 85.9 µM | 46 µM | 40 ± 4.6 µM | 60.5 ± 9.2 | 281 ± 320 |
| 56 ± 8.1 | -4.47 ± 11 |  | CCCCc1ccc2[nH]c(NC(=O)OC)nc2c1 [Parbendazole*] | 38.4 µM | 21.1 µM | 5.79 ± 1.6 µM | 77.1 ± 5.2 | 66.8 ± 26 |
| -11.6 ± 10 | -94.7 ± 2.8 | 1.04 ± 0.07 µM | c1csc(SSc2cccs2)c1 [2-Thienyl disulfide] | 82.7 µM | 33.5 µM | 41.4 ± 2.8 µM | 81.3 ± 8.7 | 126 ± 80 |
| -13.8 ± 13 | -22.9 ± 5.9 |  | O=C1c2ccccc2C(=O)C1c1ccc2ccccc2n1 [D & C Yellow II] | 38.4 µM | 11.6 µM | 28.2 µM | 71.4 ± 9.3 | 68.8 ± 34 |
| -8.28 ± 7.3 | -68.8 ± 8.1 | 1.52 ± 0.89 µM | Oc1c(I)cc(Cl)c2cccnc12 [Clioquinol] | 21.6 µM | 6.33 µM | 10.4 ± 1.3 µM | 125 ± 14 | 87.3 ± 32 |
| 36.4 ± 15 | -94.9 ± 1.7 | 4.18 ± 2 µM | CN(C)c1ccc(C(=C2C=CC(=[N+](C)C)C=C2)c2ccccc2)cc1 [Malachite green oxalate*] | 15.3 µM |  | 8.91 µM | 47.7 ± 7.8 | -37.3 ± 7.1 |
| 182 ± 33 | -58.7 ± 20 | 38.4 ± 2.5 µM | N=C1C=CC(=C(c2ccc(N)cc2)c2ccc(N)cc2)C=C1 [C.I. Basic Red 9 monohydrochloride] | 44.7 µM |  | 34.2 ± 2.2 µM | 100 ± 9.3 | 38.6 ± 64 |
| -0.22 ± 12 | -90.5 ± 5.6 | 0.65 ± 0.18 µM | O=c1[nH]sc2cc(Cl)ccc12 [Ticlatone] | 21.6 µM |  | 13.2 ± 2.4 µM | 92.2 ± 7.7 | 55.4 ± 80 |
| -0.97 ± 8.8 | -98.5 ± 3.1 | 2.42 ± 0.16 µM | Cn1sccc1=O [2-Methyl-4-isothiazolin-3-one hydrochloride] | 35.9 µM | 13.7 µM | 25.2 ± 2.9 µM | 50.4 ± 5.3 | 118 ± 32 |
